Source: article PMC5442318, “Hundreds of dual-stage antimalarial molecules discovered by a functional gametocyte screen” (Nature Communications, 2017)
Like-named read-outs stand apart in the source and are kept apart here.

Columns and labels:
[1] = tested on: P. falciparum female gametes; test: Pf FGAA with compounds added 30 min after triggering gametocyte activation (gamete-targeting); format: cell-based, Plasmodium falciparum NF54; details: 0h incubation time
[2] = tested on: P. falciparum asexual blood stages; details: TCAMS data, cited from earlier work; for IC50: ref 1 (Gamo et al., 2010), read-out: Pf Asexual blood stages XC50; for Pf Asexual stages XC50: ref 1 (Gamo, F. J. et al., Nature 465, 305-310, 2010)
HepG2 cells = test: HepG2 cytotoxicity assay; format: cell-based; details: for Selectivity ratio: HepG2 TOX50 vs Pf FGAA IC50
Outline: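 Post-incubation CellTiter-Glo luminescence; 30 min RT equilibration, 10 min RT stabilization before reading.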

[3] = tested on: P. falciparum stages IV–V gametocytes; test: Gametocytocidal ATP-depletion assay (gametocyte ATP bioluminescence); format: cell-based, Plasmodium falciparum; details: for inhibition at 2 µM: Plasmodium falciparum, mean
Outline: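 Purified stage IV–V gametocytes (12,500/well) incubated with compound for 48 h at 37 °C under 3% O2/5% CO2. ATP measured by BacTiter-Glo luminescence as a viability surrogate; hits tested at 2 μM single concentration.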

[4] = tested on: P. falciparum stage V female gametocytes; test: P. falciparum female gametocyte activation assay (Pf FGAA), 24 h or 48 h preincubation, Pfs25 expression readout; format: cell-based, Plasmodium falciparum NF54; set-up: key to Biological profile: 49 compounds that were only active with a 48 h exposure (designated as slow-acting); 29 compounds additionally showed activity with only 24 h exposure (designated as fast-acting); when the compounds were added 30 min after triggering gametocyte activation, 12 compounds prevented cell surface expression of Pfs25 (designated as gamete-targeting); details: for Pf FGAA classification: SLOW / FAST / GAMETE from activity at 48h, 24h, 0h incubation
Outline: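 Purified stage V gametocytes from P. falciparum NF54 gametocyte cultures were exposed to compounds for 24 h or 48 h at 37 °C under 3% O2/5% CO2, then activated by temperature drop plus xanthurenic acid. Activated females were stained with Cy3-anti-Pfs25 (0.5 μg ml^−1) for 24 h at 26 °C and counted by high-content imaging; pIC50 by nonlinear regression.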

[5] = 24h incubation time, read-out: Pf FGAA IC50 (µM) 24h
[6] = mean, read-out: Gametocytes mean Pf FGAA IC50
[7] = Plasmodium falciparum, 24h incubation time, read-out: Pf FGAA IC50 (µM) 24h
[8] = Plasmodium falciparum, mean, read-out: Gametocytes mean Pf FGAA IC50

Row | Compound | IC50 [1] | IC50 [2] | Pf Asexual stages XC50 [2] | HepG2 cells mean TOX50 (HepG2 cells) | Gametocytes mean ATP inhibition at 2µM (%) [3] | IC50 [4, 5] | Pf FGAA classification [4] | IC50 [4, 6] | HepG2 cells TOX50 (HepG2 cells) | Biological profile ([4]; Pf FGAA with 48 h, 24 h or post-activation addition, active = IC50 below 2 μM) | IC50 ([4]; stage V gametocytes, 48 h exposure, read-out: PfFGAA IC50) | IC50 ([1]; Plasmodium falciparum) | Selectivity ratio (HepG2 cells) | inhibition at 2 µM [3] | IC50 [4, 7] | IC50 [4, 8]
1 | CN1CCN(Cc2ccc(OCc3cccc(COc4ccc(CN5CCN(C)CC5)cc4I)c3)c(I)c2)CC1.Cl [TCMDC-137239] | 15.1 µM | 1010 nM | 1010 nM | 5.01 µM | -13.43% | 6.48 µM | SLOW | 1.85 µM |  |  |  |  |  |  |  | 
2 | Clc1nc(Cl)c2c(ccn2Cc2ccccc2)n1 [TCMDC-137801] | > 20 µM | 790 nM | 790 nM | >100 µM | -14.95% | 2.29 µM | FAST | 1.46 µM | >100 µM |  |  |  |  |  |  | 
3 | N#Cc1ccc(Cn2ccc3c4c(N)nc(N)nc4ccc32)cc1 [TCMDC-137820] | 8.15 µM | 3 nM | 3 nM | <0.0017 µM | -6.11% | 1.91 µM | FAST |  | <0.0017 µM | fast-acting | 1.06 µM |  |  |  |  | 
4 | Cc1ccc(S(=O)(=O)N(CCCNCc2cccc(O)c2)c2ccccc2)cc1 [TCMDC-138022] |  | 770 nM | 770 nM | 44.67 µM |  |  | SLOW |  |  |  |  | > 20 µM | 39.21 | 32% | > 20 µM | 1.14 µM
5 | COc1cc2nc(Nc3ccc4c(ccn4Cc4ccccc4)c3)nc(Nc3ccc4c(ccn4Cc4ccccc4)c3)c2cc1OC [TCMDC-138237] | > 20 µM | 650 nM | 650 nM | 14.13 µM | 12.64% | 5.44 µM | SLOW | 1.58 µM |  |  |  |  |  |  |  | 
6 | Cl.Fc1cc(Cl)ccc1Nc1ccnc2cc(-c3ccc(CN4CCNCC4)o3)ccc12 [TCMDC-138394] | > 20 µM | 280 nM | 280 nM | 12.05 µM | 1.31% | 10 µM | SLOW | 1.91 µM |  |  |  |  |  |  |  | 
7 | CN(C)CCNCc1cccc(-c2ccc3c(Nc4ccc(Oc5ccccn5)cc4)ccnc3c2)c1 [TCMDC-138493] | 2.27 µM | 230 nM | 230 nM | 3.98 µM | 38.43% | 2.58 µM | GAMETE | 0.82 µM |  |  |  |  |  |  |  | 
8 | CN(/N=C/C=C/c1ccc(Cl)cc1)c1nc(NCCc2ccc(O)cc2)nc(N2CCNCC2)n1 [TCMDC-138546] | > 20 µM | 870 nM | 870 nM | 13.18 µM | -1.95% | 11.2 µM | SLOW | 1.96 µM |  |  |  |  |  |  |  | 
9 | Clc1ccc(Nc2nc(NCc3ccccc3)nc(N/N=C/c3ccccn3)n2)cc1 [TCMDC-138557] |  | 780 nM | 780 nM | 13.96 µM |  |  | FAST |  |  |  |  | 2.98 µM | 53.35 | 35.7% | 0.4 µM | 0.26 µM
10 | CC(C)(C)c1ccc(CNCCOc2ccc(Nc3nnc(-c4ccc(-c5ncc[nH]5)cc4)o3)c3ccccc23)cc1.O=C(O)C(F)(F)F [TCMDC-138667] | 13.2 µM | 140 nM | 140 nM | 5.96 µM | -11.45% | 3.03 µM | SLOW | 0.62 µM |  |  |  |  |  |  |  | 
11 | COC(=O)c1ccc(-c2ccc(C(=O)NCC3CCN(c4nc(N)c5cc(OC)c(OC)cc5n4)CC3)cc2)cc1 [TCMDC-138721] | 13.5 µM | 190 nM | 190 nM | 6.10 µM | 31.66% | 1.88 µM | FAST | 0.91 µM |  |  |  |  |  |  |  | 
